Test system: soft tissue sarcomas
Experiment: Phase I clinical trial in soft tissue sarcoma patients: MRI (DCE-MRI, DWI, RECIST) after two weeks of Sorafenib only treatment (TP1) versus before therapy (TP0)
Format: in vivo, human
Protocol: Patients with biopsy-proven, grade 2-3, deep, and >5 cm soft tissue sarcomas participated in a phase I clinical trial in which the vascular endothelial growth factor receptor (VEGFR) inhibitor, Sorafenib, was added to a preoperative chemoradiotherapy regimen. Research MRI studies were performed at time-point zero (TP0)—before therapy, TP1, after two weeks of Sorafenib only treatment, and TP2, after eight more weeks of treatment with Sorafenib plus chemoradiation therapy, followed by surgery and pathology review including estimation of tumor histologic necrosis. A total of eleven patients consented to the research MRI scans, with 9 of them having at least two DCE-MRI studies (at TP0 and TP1). In these 9 patients, five masses were located in the thigh, two in the calf, one in the knee, and one in the shoulder.
The MRI studies were performed using a 3T Siemens instrument with the body transmit and phased-array body matrix (combined with a spine matrix) receive RF coils. Following scout and axial T2-weighted MRI, sagittal diffusion-weighted imaging (DWI) was performed (in seven of the 9 patients) using a spin-echo single-shot EPI sequence with TE/TR=104/8000 ms, 24-36 cm FOV, 5 mm slice thickness with zero gap, 192×192 matrix size, and b values of 0, 500, and 1000 s/mm^2 applied in three orthogonal directions.
Subsequently, a 3D RF-spoiled gradient-echo sequence was used to acquire sagittal DCE-MRI data with 10 degree flip angle, TE/TR=[…], and 320×160 matrix size. […]
ADC trace maps were generated with manufacturer's DWI data processing software. […] The arterial input functions (AIFs) used for the quantitative analyses were directly measured from ROIs placed in a femoral artery (for thigh, knee, and calf tumors) and an axillary artery (for the shoulder mass). The whole tumor ROI DWI/DCE-MRI parameter values were calculated by averaging the ROI values from each of the image slices covering the entire tumor, weighted by the pixel numbers within the image slice ROIs. Pixel parameter values were analyzed with histograms and the amplitude and median values were obtained. […]

Compound: CNC(=O)c1cc(Oc2ccc(NC(=O)Nc3ccc(Cl)c(C(F)(F)F)c3)cc2)ccn1 [Sorafenib]
- change in ADC (apparent diffusion coefficient) (% change at TP1 (two weeks of Sorafenib only) relative to TP0): small
- change in tumor size (RECIST) (% change at TP1 (two weeks of Sorafenib only) relative to TP0, 9 patients): small
- tumor vascular effect detected by DCE-MRI biomarkers (patients with grade 2-3 soft tissue sarcomas, after two weeks of Sorafenib only treatment (TP1)): Tumor vascular shut-down induced by Sorafenib preceded cell death
